These results are taken from US20240262842A1, “SMALL MOLECULE INHIBITORS OF KRAS G12C MUTANT” (Merck Sharp & Dohme LLC, priority 2021, published 2024).

In test [1] the target is T1, interaction between GMPPNP-bound recombinant K-Ras4B G12C mutant protein and cRAF RAS-binding domain (cRAF-RBD) (Homo sapiens, UniProt P01116, G12C).
T1 construct: His-tag (N)
Nature of the test: Inhibitory activity on interaction between KRAS G12C and cRAF (Alpha technology). As to conditions: Table 2-1. Put shortly: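 His-tagged K-Ras4B G12C (aa 1-169), GMPPNP-loaded, preincubated with compound 1 h at 25° C in pH 7.5 Tris buffer with MgCl2, TCEP, Tween 20. cRAF-RBD (aa 50-132) and Alpha reagents then added for 1.5 h; Alpha signal normalised to DMSO (0%) and GDP-bound KRAS (100%); IC50 from dose titration.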

A further test relates to MIA PaCa-2 cells. Nature of the test: Growth inhibition activity on KRAS-G12C mutant cell line (CellTiter-Glo 3D). Format: cell-based, human. As to conditions: MIA PaCa-2, 3-day culture with compound, Table 3-1. The method in brief: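 MIA PaCa-2 cells in RPMI1640 with 10% FBS, U-bottom wells, cultured 1 day before compound (0.2% DMSO final), then 3 days at 37 °C, 5% CO2. Viability by CellTiter-Glo 3D luminescence; growth inhibition versus untreated wells gives IC50 (nM).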

[2] abbreviates: GMPPNP-bound KRAS G12C incubated with compound 25° C. 1 hour, read-out: IC50.
Where [3] appears, read: IC50, GMPPNP-bound KRAS G12C incubated with compound 25° C. 1 hour.

Like-named read-outs stand apart in the source and are kept apart here.

T1 sequence (P01116 with tags, fused parts or gaps isoform P01116-2 G12C): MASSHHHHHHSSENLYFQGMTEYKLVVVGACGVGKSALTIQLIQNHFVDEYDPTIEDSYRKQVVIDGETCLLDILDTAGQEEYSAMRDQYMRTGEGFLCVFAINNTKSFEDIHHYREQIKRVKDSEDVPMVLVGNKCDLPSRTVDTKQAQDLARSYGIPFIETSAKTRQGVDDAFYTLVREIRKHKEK

Take `CO[C@H]1CC[C@H](NC/C=C/C(=O)Nc2c(F)cc(C(=O)c3cc4c5c(cccn35)-c3c(C)cc5c(nc(C)n5C)c3N(C)CC4)cc2F)CC1` (single isomer, unassigned) [Example 69, (E)-N-(2,6-difluoro-4-(7,9,10,12-tetramethyl-9,12,13,14-tetrahydro-imidazo[4″,5″:5′,6′]benzo-[1′,2′:2,3]azocino[4,5,6-hi]indolizine-2-carbonyl)-phenyl)-4-(((1r,4r)-4-methoxycyclohexyl)-amino)but-2-enamide]: the 50% inhibitory concentration (IC50) in test [1] (setting [2]) was 19.8 nM; with MIA PaCa-2 cells (Homo sapiens, MIA PaCa-2, 72 h) it was 15.5 nM.

On to `Cc1nc2c3c(c(C(F)(F)F)cc2n1C)-c1cccn2c(C(=O)c4cc(F)c(NC(=O)/C=C/CNC5(C)CCOCC5)c(F)c4)cc(c12)CCN3C` (single isomer, unassigned) [Example 70, (E)-N-(2,6-difluoro-4-(9,10,12-trimethyl-7-(tri-fluoromethyl)-9,12,13,14-tetrahydroimidazo[4″,5″: 5′,6′]benzo[1′,2′:2,3]-azocino[4,5,6-hi]indol-izine-2-carbonyl)phenyl)-4-((4-methyltetrahydro-2H-pyran-4-yl)amino)but-2-enamide], for which the IC50 in test [1] (setting [2]) worked out at 9.85 nM; with MIA PaCa-2 cells (Homo sapiens, MIA PaCa-2, 72 h) it was 2.49 nM.

For `Cc1nc2c3c(c(C(F)(F)F)cc2n1C)-c1cccn2c(C(=O)c4cc(F)c(NC(=O)/C=C/CNC5(C)COC5)c(F)c4)cc(c12)CCN3C` (single isomer, unassigned) [Example 71, (E)-N-(2,6-difluoro-4-(9,10,12-trimethyl-7-(trifluoromethyl)-9,12,13,14-tetrahydroimidazo[4″,5″:5′,6′]benzo[1′,2′:2,3]azocino[4,5,6-hi]indolizine-2-carbonyl)phenyl)-4-((3-methyloxetan-3-yl)amino)but-2-enamide], the IC50 was determined as 20.2 nM in test [1] (setting [2]) and 9.6 nM in the test on MIA PaCa-2 cells (Homo sapiens, MIA PaCa-2, 72 h).

On to `Cn1cnc2c3c(c(C(F)(F)F)cc21)-c1cccn2c(C(=O)c4cc(F)c(NC(=O)/C=C/CNC5(C)COC5)c(F)c4)cc(c12)CCO3` (single isomer, unassigned) [Example 75, (E)-N-(2,6-difluoro-4-(9-methyl-7-(trifluoro-methyl)-13,14-dihydro-9H-imidazo[4″,5″:5′,6′]-benzo[1′,2′:2,3]oxocino-[4,5,6-hi]indolizine-2-carbonyl)phenyl)-4-((3-methyloxetan-3-yl)-amino)but-2-enamide], for which the IC50 in test [1] (setting [2]) is 15.9 nM; in the test on MIA PaCa-2 cells (Homo sapiens, MIA PaCa-2, 72 h), 9.48 nM.

For the molecule `CN1CCc2cc(C(=O)c3cc(F)c(NC(=O)/C=C/CNC4(C)COC4)c(F)c3)n3cccc(c23)-c2c(C(F)(F)F)cc3c(ncn3C)c21` (single isomer, unassigned) [Example 83], the 50% inhibitory concentration (IC50) in test [1] (setting [2]) stood at 33.9 nM; with MIA PaCa-2 cells (Homo sapiens, MIA PaCa-2, 72 h), 15.4 nM.

`Cc1nc2c3c(c(C(F)(F)F)cc2n1C)-c1cccc2c(C(=O)c4cc(F)c(NC(=O)/C=C/CN[C@H]5CCOC5)c(F)c4)cn(c12)CCN3C` (single isomer, unassigned) [Example 87]: the IC50 in test [1] (setting [3]) is 18.2 nM; with MIA PaCa-2 cells (Homo sapiens, MIA PaCa-2, 72 h), 3.27 nM.

Take `CN1CCc2cc(C(=O)c3cc(F)c(NC(=O)/C=C/CN[C@@H]4CCOC4)c(F)c3)n3cccc(c23)-c2c(C(F)(F)F)cc3c(ncn3C)c21` (single isomer, unassigned) [Example 89]: the IC50 in test [1] (setting [2]) came to 16 nM; with MIA PaCa-2 cells (Homo sapiens, MIA PaCa-2, 72 h) it was 4.37 nM.

`Cc1cc2c(nc(C)n2C)c2c1-c1cccc3c(C(=O)c4cc(F)c(NC(=O)/C=C/CN[C@H]5CCOC5)c(F)c4)cn(c13)CCN2C` (single isomer, unassigned) [Example 90]: the IC50 in test [1] (setting [3]) came to 17.2 nM; with MIA PaCa-2 cells (Homo sapiens, MIA PaCa-2, 72 h) it was 21.6 nM.

Regarding `COCc1nc2c3c(c(C(F)(F)F)cc2n1C)-c1cccn2c(C(=O)c4cc(F)c(NC(=O)/C=C/CNC5(C)COC5)c(F)c4)cc(c12)CCN3C` (single isomer, unassigned) [Example 92, (E)-N-(2,6-difluoro-4-(10-(methoxymethyl)-9,12-dimethyl-7-(trifluoromethyl)-9,12,13,14-tetrahydroimidazo[4″,5″:5′,6′]benzo[1′,2′:2,3]azocino[4,5,6-hi]indolizine-2-carbonyl)phenyl)-4-((3-methyloxetan-3-yl)amino)but-2-enamide], the IC50 in test [1] (setting [2]) stood at 19.9 nM; with MIA PaCa-2 cells (Homo sapiens, MIA PaCa-2, 72 h), 12.1 nM.

`Cc1nc2c3c(c(C(F)(F)F)cc2n1C)-c1cccc2c(C(=O)c4cc(F)c(NC(=O)/C=C/CN[C@@H]5CCOC5)c(F)c4)cn(c12)CCN3C` (single isomer, unassigned) [Example 95]: the IC50 in test [1] (setting [3]) worked out at 31.2 nM; in the test on MIA PaCa-2 cells (Homo sapiens, MIA PaCa-2, 72 h), 11.4 nM.

For `COCc1nc2c3c(c(C(F)(F)F)cc2n1C)-c1cccc2c(C(=O)c4cc(F)c(NC(=O)/C=C/CNC5(C)COC5)c(F)c4)cn(c12)CCN3C` (single isomer, unassigned) [Example 97, (E)-N-(2,6-difluoro-4-(9-(methoxymethyl)-8,11-dimethyl-6-(trifluorometh-yl)-8,11,12,13-tetrahydro-imidazo[4″,5″:5′,6′]benzo-[1′,2′:5,6][1,4]diazocino-[7,8,1-hi]indole-2-carbon-yl)phenyl)-4-((3-methyl-oxetan-3-yl)amino)but-2-enamide], the IC50 in test [1] (setting [3]) amounted to 30.4 nM; with MIA PaCa-2 cells (Homo sapiens, MIA PaCa-2, 72 h), 7.91 nM.

Take `COCc1nc2c3c(c(C(F)(F)F)cc2n1C)-c1cccn2c(C(=O)c4cc(F)c(NC(=O)/C=C/CN[C@H]5CCOC5)c(F)c4)cc(c12)CCN3C` (single isomer, unassigned) [Example 98]: the IC50 in test [1] (setting [2]) was found to be 11.1 nM; in the test on MIA PaCa-2 cells (Homo sapiens, MIA PaCa-2, 72 h) it was 3.94 nM.

For the molecule `COCc1nc2c3c(c(C(F)(F)F)cc2n1C)-c1cccn2c(C(=O)c4cc(F)c(NC(=O)/C=C/CNC5(C)COC5)c(F)c4)cc(c12)CCO3` (single isomer, unassigned) [Example 99, (E)-N-(2,6-difluoro-4-(10-(methoxymethyl)-9-meth-yl-7-(trifluoromethyl)-13,14-dihydro-9H-imidazo[4″,5″:5′,6′]benzo-[1′,2′:2,3]oxocino[4,5,6-hi]indolizine-2-carbonyl)-phenyl)-4-((3-methyl-oxetan-3-yl)amino)-but-2-enamide], the IC50 in test [1] (setting [2]) worked out at 12.2 nM; with MIA PaCa-2 cells (Homo sapiens, MIA PaCa-2, 72 h), 9.79 nM.

On to `COCc1nc2c3c(c(C)cc2n1C)-c1cccn2c(C(=O)c4cc(F)c(NC(=O)/C=C/CN[C@H]5CC[C@H](OC)CC5)c(F)c4)cc(c12)CCN3C` (single isomer, unassigned) [Example 105, (E)-N-(2,6-difluoro-4-(10-(methoxymethyl)-7,9,12-trimethyl-9,12,13,14-tetra-hydroimidazo[4″,5″:5′,6′]-benzo[1′,2′:2,3]azocino-[4,5,6-hi]indolizine-2-carbonyl)phenyl)-4-(((1r,4r)-4-methoxycyclo-hexyl)amino)but-2-en-amide], for which the IC50 in test [1] (setting [2]) worked out at 19.2 nM; in the test with MIA PaCa-2 cells (Homo sapiens, MIA PaCa-2, 72 h), 15.5 nM.

For `COCc1nc2c3c(c(C)cc2n1C)-c1cccn2c(C(=O)c4cc(F)c(NC(=O)/C=C/CN[C@H]5CCOC5)c(F)c4)cc(c12)CCN3C` (single isomer, unassigned) [Example 106], the concentration for half-maximal inhibition (IC50) was 18 nM in test [1] (setting [2]) and 21.9 nM in the test on MIA PaCa-2 cells (Homo sapiens, MIA PaCa-2, 72 h).

With `Cc1cc2c(nc(C)n2C)c2c1-c1cccn3c(C(=O)c4cc(F)c(NC(=O)/C=C/CN[C@H]5CCOC5)c(F)c4)cc(c13)CCN2C` (single isomer, unassigned) [Example 107], the IC50 worked out at 23.7 nM in test [1] (setting [2]) and 29.7 nM in the test on MIA PaCa-2 cells (Homo sapiens, MIA PaCa-2, 72 h).

Turning to `Cc1cc2c(ncn2C)c2c1-c1cccn3c(C(=O)c4cc(F)c(NC(=O)/C=C/CN[C@H]5CCOC5)c(F)c4)cc(c13)CCN2C` (single isomer, unassigned) [Example 117], the IC50 in test [1] (setting [2]) was 20.5 nM; in the test on MIA PaCa-2 cells (Homo sapiens, MIA PaCa-2, 72 h), 55.3 nM.

As to `COc1cc2c(nc(C)n2C)c2c1-c1cccn3c(C(=O)c4cc(F)c(NC(=O)/C=C/CN[C@H]5CCOC5)c(F)c4)cc(c13)CCN2C` (single isomer, unassigned) [Example 129], the IC50 in test [1] (setting [2]) was determined as 8.8 nM; with MIA PaCa-2 cells (Homo sapiens, MIA PaCa-2, 72 h), 7.11 nM.

For the molecule `CC1Cc2cc(C(=O)c3cc(F)c(NC(=O)/C=C/CNC4(C)COC4)c(F)c3)n3cccc(c23)-c2c(C(F)(F)F)cc3c(ncn3C)c2O1` (single isomer, unassigned) [Example 130-1, (E)-N-(4-(9,13-dimethyl-7-(trifluoromethyl)-13,14-dihydro-9H-imidazo[4″,5″:5′,6′]benzo[1′,2′:2,3]oxocino[4,5,6-hi]indolizine-2-carbonyl)-2,6-difluorophenyl)-4-((3-methyloxetan-3-yl)amino)but-2-enamide], the IC50 turned out to be 26.3 nM in test [1] (setting [2]) and 17.4 nM in the test with MIA PaCa-2 cells.

Consider `CC1Cc2cc(C(=O)c3cc(F)c(NC(=O)/C=C/CNC4(C)COC4)c(F)c3)n3cccc(c23)-c2c(C(F)(F)F)cc3c(ncn3C)c2O1` (single isomer, unassigned) [Example 130-2, (E)-N-(4-(9,13-dimethyl-7-(trifluoromethyl)-13,14-dihydro-9H-imidazo[4″,5″:5′,6′]benzo[1′,2′:2,3]oxocino[4,5,6-hi]indolizine-2-carbonyl)-2,6-difluorophenyl)-4-((3-methyloxetan-3-yl)amino)but-2-enamide], for which the IC50 was determined as 3760 nM in test [1] (setting [2]) and 3410 nM with MIA PaCa-2 cells.

In the case of `CC1Cc2cc(C(=O)c3cc(F)c(NC(=O)/C=C/CNC4(C)COC4)c(F)c3)n3cccc(c23)-c2c(C(F)(F)F)cc3c(ncn3C)c2O1` (single isomer, unassigned) [Example 131, (E)-N-(4-(9,13-dimethyl-7-(trifluoromethyl)-13,14-dihydro-9H-imidazo[4″,5″:5′,6′]benzo[1′,2′:2,3]oxocino[4,5,6-hi]indolizine-2-carbonyl)-2,6-difluorophenyl)-4-((3-methyloxetan-3-yl)amino)but-2-enamide], the IC50 in test [1] (setting [2]) was found to be 27.9 nM; in the test with MIA PaCa-2 cells, 40.8 nM.

What is called IC50 is the midpoint of a concentration-inhibition curve.
